Assay results taken from article PMC8147360, “AGMO Inhibitor Reduces 3T3-L1 Adipogenesis” (Cells, 2021).

Legend:
[1] = target: T1, Alkylglycerol monooxygenase (AGMO) (Rattus norvegicus, UniProt A0JPQ8); assay: HPLC fluorescence activity assay with 1-O-pyrenedecyl-sn-glycerol in rat liver microsomes, coupled to FALDH (FALDH not inhibited); assay type: biochemical
T1 construct: native enzyme in rat liver microsomes
T1 sequence (A0JPQ8 1-447): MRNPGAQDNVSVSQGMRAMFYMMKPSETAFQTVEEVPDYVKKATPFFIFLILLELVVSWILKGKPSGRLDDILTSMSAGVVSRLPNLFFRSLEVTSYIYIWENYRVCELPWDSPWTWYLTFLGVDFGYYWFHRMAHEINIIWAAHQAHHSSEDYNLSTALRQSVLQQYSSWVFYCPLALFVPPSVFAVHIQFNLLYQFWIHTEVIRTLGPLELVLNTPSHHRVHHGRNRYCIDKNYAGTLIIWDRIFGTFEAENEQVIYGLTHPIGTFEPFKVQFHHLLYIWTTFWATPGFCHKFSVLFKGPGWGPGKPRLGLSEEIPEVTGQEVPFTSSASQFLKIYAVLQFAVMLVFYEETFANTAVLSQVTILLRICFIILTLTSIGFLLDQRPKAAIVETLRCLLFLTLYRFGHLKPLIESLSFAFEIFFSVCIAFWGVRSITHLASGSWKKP

[2] = target: T2, phenylalanine hydroxylase (PAH) (Rattus norvegicus, UniProt P04176); assay: HPLC tyrosine fluorescence assay with purified recombinant PAH; assay type: biochemical
T2 construct: rat PAH maltose fusion protein, expressed in E. coli
T2 sequence (P04176 2-453): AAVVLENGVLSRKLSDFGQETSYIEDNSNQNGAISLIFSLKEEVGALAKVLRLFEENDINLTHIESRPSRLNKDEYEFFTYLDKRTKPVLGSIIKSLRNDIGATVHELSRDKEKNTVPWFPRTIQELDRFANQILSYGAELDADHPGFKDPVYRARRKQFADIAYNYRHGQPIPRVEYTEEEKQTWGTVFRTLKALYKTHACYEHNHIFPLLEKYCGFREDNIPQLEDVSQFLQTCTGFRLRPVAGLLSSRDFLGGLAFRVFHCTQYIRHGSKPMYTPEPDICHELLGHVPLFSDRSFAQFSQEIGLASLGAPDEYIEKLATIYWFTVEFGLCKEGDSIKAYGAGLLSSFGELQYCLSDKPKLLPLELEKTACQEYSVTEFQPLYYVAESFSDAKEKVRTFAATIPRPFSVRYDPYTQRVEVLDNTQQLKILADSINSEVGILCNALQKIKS

- IC50 [1]: ~50 µM
- IC50 [2]: 360 to 430 µM
Compound: CC1Nc2nc(N(C)C)[nH]c(=O)c2NC1C (centres unmarked) [compound 6, 2-(dimethylamino)-6,7-dimethyl-5,6,7,8-tetrahydro-4(3H)-pteridinone]
